From patent US8722052B2, “Vaccinia virus protein A46 peptide and use thereof” (priority 2008, dated 2014) come the findings set out here.

Entries after “also recorded” stand apart in the source; their conditions may differ.

One experiment concerns JNK. In words: LPS-induced phospho-JNK in RAW264.7 cells, immunoblot. Format: cell-based, murine. Particulars: peptide 5 μM, 10 ng/ml LPS 5-60 min. How it is done:
FIGS. 27A, B and C are immunoblots showing the effect of A464 on LPS-induced appearance of phospho-JNK in murine RAW264.7 cells. Cells were set up as for FIG. 25 above and 5 μM A467 (SEQ ID NO. 23) or A464 (SEQ ID NO. 20) were added to the wells 1 hour before stimulation. Cells were stimulated with 10 ng/ml LPS for a period of 5, 15, 30 or 60 min, then harvested and lysed. Proteins were resolved by SDS-PAGE, and transferred membranes immunoblotted for phospho-JNK (A), total JNK (B) or β-actin (C). The blots shown are representative of two experiments;
RAW264.7 cells were seeded at a density of 1×10^5 cells/ml in 6 well plates. […] The protein concentration was determined by monitoring the change in the solution absorbance at 280 nm using a spectrophotometer compared to protein standards. […] Thereafter, the membranes were washed, incubated in appropriate secondary antibody and then developed using standard enhanced chemi-luminescence (ECL) reagents.
Next, the effect of A464 (SEQ ID No. 20) on MAPK activation was measured by assaying the phosphorylation of p38 and JNK by Western blot. […] As before the protein concentration in the samples was determined by Bradford assay and the accuracy of the loading was confirmed by re-probing the blot for β-actin. […]
A general note: A western blot detects proteins with antibodies after separation by electrophoresis.

A further experiment has as its system TLR4. Put plainly: LPS-induced TNFα in PMA-differentiated U937 cells, ELISA. Format: cell-based, human. Particulars: peptide 5 or 20 μM 1 h before 100 ng/ml LPS, 24 h. Here is the method:
FIGS. 3A and B are bar charts showing the effect of peptides derived from A46 on LPS-induced TNFα in human U937 cells. Cells were differentiated with 200 nM PMA and seeded in 96 well plates (2×10^5 cells/ml) 24 hours before treatment. A46 peptides were added to the cells at a concentration of 5 or 20 μM 1 hour before stimulating with 100 ng/ml LPS. Supernatants were collected 24 hours after stimulation and assayed for TNFα by ELISA. No peptides were added into the control wells (black bars). (A) peptides A461-A467 (SEQ ID NO. 17 to 23). (B) peptides A468-A4614 (SEQ ID NO. 24 to 30) (excluding A4612 SEQ ID NO. 28). Data is representative of at least two experiments each performed in triplicate and is expressed as mean±s.d;
Cytokine and chemokine production from cells or mouse serum was measured by ELISA using Duoset kits from R&D systems, according to the manufacturer's instructions.
LPS is a component of a cell wall of Gram-negative bacteria which is recognised by a homodimer of TLR4 and signals to NFκB via both a MyD88- and TRIF-dependent pathway (O'Neill and Bowie, 2007). In order to examine the effect of the peptides on TLR4-dependent gene induction in human cells, the human monocytic lymphoma cell line U937 was used. U937 cells were differentiated into macrophages by treatment with 200 nM PMA for 24 hours before any further manipulations. […]
A general note: An ELISA detects its analyte on a solid surface through an enzyme-linked reagent.

Sequence of TLR4 (O00206 24-839): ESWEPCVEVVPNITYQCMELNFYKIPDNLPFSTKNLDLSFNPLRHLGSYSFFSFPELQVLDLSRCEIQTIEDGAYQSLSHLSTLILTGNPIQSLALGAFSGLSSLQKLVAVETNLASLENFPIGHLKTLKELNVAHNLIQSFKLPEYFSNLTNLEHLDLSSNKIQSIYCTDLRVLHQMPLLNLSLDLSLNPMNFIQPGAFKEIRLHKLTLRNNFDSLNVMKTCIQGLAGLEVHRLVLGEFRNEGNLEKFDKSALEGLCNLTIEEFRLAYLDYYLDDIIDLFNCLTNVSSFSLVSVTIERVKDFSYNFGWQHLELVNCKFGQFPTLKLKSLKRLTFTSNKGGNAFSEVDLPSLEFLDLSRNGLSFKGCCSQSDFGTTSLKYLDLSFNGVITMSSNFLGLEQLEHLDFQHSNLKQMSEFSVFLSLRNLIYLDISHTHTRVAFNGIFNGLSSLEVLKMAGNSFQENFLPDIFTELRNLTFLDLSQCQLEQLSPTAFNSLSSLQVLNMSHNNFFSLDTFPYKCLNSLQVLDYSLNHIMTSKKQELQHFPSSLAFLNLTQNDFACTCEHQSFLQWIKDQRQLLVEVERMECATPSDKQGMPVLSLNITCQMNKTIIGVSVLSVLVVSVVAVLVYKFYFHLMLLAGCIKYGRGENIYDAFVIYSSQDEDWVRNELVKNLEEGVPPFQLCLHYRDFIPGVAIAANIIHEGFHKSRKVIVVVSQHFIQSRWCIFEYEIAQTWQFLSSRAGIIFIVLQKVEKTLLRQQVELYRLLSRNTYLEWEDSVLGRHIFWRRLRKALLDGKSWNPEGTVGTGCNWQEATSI
Sequence of TLR4 (Q9Y6Y9 17-160 partner limits assumed): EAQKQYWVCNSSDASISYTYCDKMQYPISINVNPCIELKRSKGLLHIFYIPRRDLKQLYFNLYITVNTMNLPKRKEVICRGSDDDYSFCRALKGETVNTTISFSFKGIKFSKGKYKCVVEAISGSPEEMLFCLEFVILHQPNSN

Regarding KYSFKLILAEYRRRRRRRRR [Peptide A464], the “effect on LPS-induced phosphorylation of JNK” value in the experiment on JNK is “completely inhibited phosphorylation of JNK at all times of the LPS stimulation”. Besides, the “inhibition of LPS (TLR4)-induced TNFα production” value in the experiment on TLR4 was “potently inhibit TLR4-mediated TNFα production; also recorded: very potent inhibitory effect”.
